Measured values reported in patent US8399672B2, “Compound having affinity for amyloid” (Nihon Medi-Physics Co., Ltd., priority 2007, dated 2013).
Like-named read-outs stand apart in the source and are kept apart here.

Tests used:
[1] = rats, [11C]-labeled; cited from earlier work
[2] = system: Salmonella typhimurium TA98 and TA100, TA1535, TA1537 and Escherichia coli WP2uvrA; assay: Reverse mutation test (Ames test), overall judgment over all strains; assay type: cell-based
Protocol: (§1) In order to examine gene mutagenicity of Compound 5, reverse mutation test using Salmonella typhimurium TA98 and TA100, TA1535, TA1537 and Escherichia coli WP2uvrA (hereinafter referred to as Ames test) was conducted.
(§2) The test was conducted without addition of S9mix and with addition of S9mix. Dimethylsulfoxide (DMSO) was used as a negative control.
(§3) As a sample solution to be added to a test plate, a 50 mg/mL solution of Compound 5 in DMSO and solutions obtained by diluting this solution with DMSO to have various concentrations were prepared. For positive control without addition of S9mix, when TA98 was used as a test strain, a solution of AF-2 (compound concentration: 1 μg/mL) in DMSO was prepared and used as a sample solution; when TA100 or WP2uvrA was used as a test strain, a solution of AF-2 (compound concentration: 0.1 μg/mL) in DMSO was prepared and used as a sample solution; when TA1535 was used as a test strain, a solution of NaN3 (compound concentration: 5 μg/mL) in water for injection was prepared and used as a sample solution; and when TA1537 was used as a test strain, a solution of 9AA (compound concentration: 800 μg/mL) in DMSO was prepared and used as a sample solution. […]

[3] = system: Salmonella typhimurium TA98; assay: Reverse mutation test (Ames test), strain TA98; assay type: cell-based
Protocol: as §1, §2, §3

[4] = system: Escherichia coli WP2uvrA; assay: Reverse mutation test (Ames test), strain WP2uvrA; assay type: cell-based
Protocol: as §1, §2, §3

[5] = system: Salmonella typhimurium TA1537; assay: Reverse mutation test (Ames test), strain TA1537; assay type: cell-based
Protocol: as §1, §2, §3

[6] = system: Salmonella typhimurium TA1535; assay: Reverse mutation test (Ames test), strain TA1535; assay type: cell-based
Protocol: as §1, §2, §3

[7] = system: Salmonella typhimurium TA100; assay: Reverse mutation test (Ames test), strain TA100; assay type: cell-based
Protocol: as §1, §2, §3

[8] = reported in WO03/106439; cited from earlier work
[9] = [125I]-labeled compounds; cited from earlier work
[10] = target: T1, amyloid in brain (aggregated Aβ1-42 injected into amygdaloid nucleus) (Homo sapiens, UniProt P05067); assay: Confirmation of binding to amyloid in brain (in vitro autoradiogram of brain slice); set-up: species or system male Wistar rat; conditions: rat brain slice immersed in sample solution (0.1 MBq/mL)
T1 construct: Aβ1-42 (manufactured by Wako); purchased Wako
Protocol: (1) Aβ1-42 (manufactured by Wako) was dissolved in phosphate buffer (pH 7.4) and shaken at 37° C. for 72 hours, to obtain a 1 mg/mL suspension of aggregated Aβ (hereinafter referred to as amyloid suspension in the present Example).
(2) Under thiopental anesthesia, the […] of the amyloid suspension was injected into an amygdaloid nucleus on one side of a male Wistar rat (7-week old). As a control, 2.5 μL of a phosphate buffered physiological saline solution (pH 7.4) was injected into an amygdaloid nucleus on the other side of the rat. A brain was removed from the rat a day after the injection of an amyloid suspension and a phosphate buffered physiological saline solution (pH 7.4) to prepare a brain slice of 10 μm in thickness with a microtome (type: CM3050S, manufactured by LEICA).
(3) Compound 6 in diethylether solution was diluted with a 1% bovine serum albumin/phosphate buffer (hereinafter referred to as 1% PB/BSA in the present Example) to obtain a sample solution (0.1 MBq/mL in radioactivity concentration). […]
(5) After the completion of the image analysis using the Bio-imaging Analyzer, pathological staining with Thioflavin T was carried out to perform imaging by use of a fluorescence microscope (manufactured by NIKON Corporation; type: TE2000-U model; excitation wavelength: 400-440 nm; detection wavelength: 470 nm). […]

T1 sequence (P05067 672-713 limits assumed): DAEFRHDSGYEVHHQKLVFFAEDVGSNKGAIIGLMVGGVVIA

## CNc1ccc(/C=C/c2ccc(O)cc2)cc1 [SB-13, (E)-4-methylamino-4′-hydroxystilbene]
[1]
  Clearance from normal tissues: shows a clearance from normal tissues

## COc1ccc2nc(-c3ccc(OCCCF)c(I)c3)cn2c1 [Compound 5, 2-[4′-(3″-fluoropropoxy)-3′-iodophenyl]-6-methoxyimidazo[1,2-a]pyridine]
[2]; all strains, with and without S9mix
  Judgment in the Ames test (mutagenicity): negative
[2]; regardless of addition of S9mix and addition amount
  Number of reverse mutation colonies relative to the negative control: less than two times
[3]; with addition of S9mix
  Mutagenicity, TA98: Negative
[3]; without addition of S9mix
  Mutagenicity, TA98: Negative
[4]; with addition of S9mix
  Mutagenicity, WP2uvrA: Negative
[4]; without addition of S9mix
  Mutagenicity, WP2uvrA: Negative
[5]; with addition of S9mix
  Mutagenicity, TA1537: Negative
[5]; without addition of S9mix
  Mutagenicity, TA1537: Negative
[6]; with addition of S9mix
  Mutagenicity, TA1535: Negative
[6]; without addition of S9mix
  Mutagenicity, TA1535: Negative
[7]; with addition of S9mix
  Mutagenicity, TA100: Negative
[7]; without addition of S9mix
  Mutagenicity, TA100: Negative

## CN(C)c1ccc(-c2cn3cc(I)ccc3n2)cc1 [IMPY, 6-iodo-2-[4′-(N,N-dimethylamino)phenyl]imidazo[1,2-a]pyridine]
[8]
  Result in reverse mutation test: positive
[9]
  Clearance from normal tissues: rapid clearance from normal tissues

## COc1cc(OCCO)ccc1-c1cn2cc([123I])ccc2n1
[10]
  Binding to intracerebral amyloid: property of binding to intracerebral amyloid
